Laboratory results published in patent EP0108351A2, “Use of substituted malonic-acid derivatives as pesticides” (BAYER AG, priority 1982, dated 1984).

Legend:
Type in all cases: in vivo
Tetranychus urticae = assay: Tetranychus test (resistant), infested bean plants dipped; details: bean plants (Phaseolus vulgaris) dipped; all stages of mites; concentration and time not stated; compared with prior art
Description: Lösungsmittel: 3 Gewichtsteile Dimethylformamid Emulgator: . 1 Gewichtsteil Alkylarylpolyglykolether
(§1) Zur Herstellung einer zweckmäßigen Wirkstoffzubereitung vermischt man 1 Gewichtsteil Wirkstoff mit der angegebenen Menge Lösungsmittel und der angegebenen Menge Emulgator und verdünnt das Konzentrat mit Wasser auf die gewünschte Konzentration.
Bohnenpflanzen (Phaseolus vulgaris), die stark von allen Entwicklungsstadien der gemeinen Spinnmilbe oder Bohnenspinnmilbe (Tetranychus urticae) befallen sind, werden durch Tauchen in die Wirkstoffzubereitung der gewünschten Konzentration behandelt.
Nach der gewünschten Zeit wird die Abtötung in % bestimmt. Dabei bedeutet 100 %, daß alle Spinnmilben abgetötet wurden; 0 % bedeutet, daß keine Spinnmilben abgetötet wurden.

Myzus pesicae = assay: Limit concentration test / root-systemic action (Myzus); details: compound mixed into soil, cabbage; leaves infested after 7 days, evaluated after 2 more days; concentration not given
Description: Testinsekt: Myzus pesicae Lösungsmittel: 3 Gewichtsteile Aceton Emulgator: 1 Gewichtsteil Alkylarylpolyglykolether
(§2) Zur Herstellung einer zweckmäßigen Wirkstoffzubereitung vermischt man 1 Gewichtsteil Wirkstoff mit der angegebenen Menge Lösungsmittel, gibt die angegebene Menge Emulgator zu und verdünnt das Konzentrat mit Wasser auf die gewünschte Konzentration.
Die Wirkstoffzubereitung wird innig mit Boden vermischt. Dabei spielt die Konzentration des Wirkstoffs in der Zubereitung praktisch keine Rolle, entscheidend ist allein die Wirkstoffgewichtsmenge pro Volumeneinheit Boden, welche in ppm (= mg/1) angegeben wird. Man füllt den behandelten Boden in Töpfe und bepflanzt diese mit Kohl (Brassica oleracea). Der Wirkstoff kann so von den Pflanzenwurzeln aus dem Boden aufgenommen und in die Blätter transportiert werden.
Für den Nachweis des wurzelsystemischen Effektes werden nach 7 Tagen ausschließlich die Blätter mit den obengenannten Testtieren besetzt. Nach weiteren 2 Tagen erfolgt die Auswertung durch Zählen oder Schätzen der toten Tiere. Aus den Abtötungszahlen wird die wurzelsystemische Wirkung des Wirkstoffs abgeleitet. Sie ist 100 %, wenn alle Testtiere abgetötet sind und 0 %, wenn noch genau so viele Testinsekten leben wie bei der unbehandelten Kontrolle.

[1] = system: Phorbia antiqua (im Boden); assay: Limit concentration test / soil insects; details: compound mixed into soil; insects added after 24 hours, evaluated after 2 to 7 more days; concentration not given
Description: Testinsekt: Phorbia antiqua (im Boden) Lösungsmittel: 3 Gewichtsteile Aceton Emulgator: 1 Gewichtsteil Alkylarylpolyglykolether
as §2
Die Wirkstoffzubereitung wird innig mit dem Boden vermischt. Dabei spielt die Konzentration des Wirkstoffs in der Zubereitung praktisch keine Rolle, entscheidend ist allein die Wirkstoffgewichtsmenge pro Volumeneinheit Boden, welche in ppm (= mg/1) angegeben wird. Man füllt den Boden in Töpfe und läßt diese bei Raumtemperatur stehen.
Nach 24 Stunden werden die Testtiere in den behandelten Boden gegeben und nach weiteren 2 bis 7 Tagen wird der Wirkungsgrad des Wirkstoffs durch Auszählen der toten und lebenden Testinsekten in % bestimmt, Der Wirkungsgrad ist 100 %, wenn alle Testinsekten abgetötet worden sind, er ist O %, wenn noch genau so viele Testinsekten leben wie bei der unbehandelten Kontrolle.

Plutella maculipennis = assay: Plutella test (cabbage leaves dipped, caterpillars placed on them); details: cabbage leaves (Brassica oleracea) dipped; concentration and time not stated; compared with prior art
Description: Lösungsmittel: 3 Gewichtsteile Dimethylformamid Emulgator : -1 Gewichtsteil Alkylarylpolyglykolether
as §1
Kohlblätter (Brassica oleracea) werden durch Tauchen in die Wirkstoffzubereitung der gewünschten Konzentration behandelt und mit Raupen der Kohlschabe (Plutella maculipennis) besetzt, solange die Blätter noch feucht sind.
Nach der gewünschten Zeit wird die Abtötung in % bestimmt. Dabei bedeutet 100 %, daß alle Raupen abgetötet wurden; 0 % bedeutet, daß keine Raupen abgetötet wurden.

[2] = system: Lucilia cuprina res.-Larven; assay: Test with Lucilia cuprina res. larvae; details: Wirkstoffkonzentration 1000 ppm, after 24 hours, read-out: Abtötung
Procedure: Emulgator: 35 Gewichtsteile Ethylenglkolmonomethylether 35 Gewichtsteile Nonylphenolpolyglykolether
Zur Herstellung einer zweckmäßigen Wirkstoffzubereitung vermischt man drei Gewichtsteile Wirkstott mit sieben Gewichtsteilen des oben angegebenen Lösungsmittel-Gemisches und verdünnt das so erhaltene Konzentrat mit Wasser auf die jeweils gewünschte Konzentration.
Etwa 20 Lucilia cuprina res.-Larven werden in ein Teströhrchen gebracht, welches ca. 1 cm^2 Pferdefleisch und 0,5 ml der Wirkstoffzubereitung enthält. Nach 24 Stunden wird der Abtötungsgrad bestimmt.

SMILES	Wirksamkeit gegenüber dem Stand der Technik (Abtötung in %) (Tetranychus urticae)	wurzelsystemische Wirkung gegenüber dem Stand der Technik (Myzus pesicae)	Wirkungsgrad gegenüber dem Stand der Technik [1]	Wirksamkeit gegenüber dem Stand der Technik (Abtötung in %) (Plutella maculipennis)	mortality at 1000 µg/mL [2] [%]
COC(C(N)=O)(C(N)=O)c1ccc(Cl)c(Cl)c1 [Beispiel 1, 2-(3,4-Dichlorphenyl)-2-methoxy-malonsäurediamid]	überlegene Wirksamkeit gegenüber dem Stand der Technik	überlegene Wirkung gegenüber dem Stand der Technik	überlegene Wirkung gegenüber dem Stand der Technik	überlegene Wirksamkeit gegenüber dem Stand der Technik	–
NC(=O)C(OC(=O)c1ccccc1Cl)C(=O)Nc1ccc(Cl)c(Cl)c1 (centres unmarked) [Beispiel 2, 3,4-Dichlorphenyl-(2-chlorbenzoyloxy)-malonsäurediamid]	–	–	–	überlegene Wirksamkeit gegenüber dem Stand der Technik	–
NC(=O)C(OC(=O)c1ccccc1)(C(N)=O)c1ccc(Cl)c(Cl)c1 [Beispiel 3, 3,4-Dichlorphenylbenzoyloxymalonsäurediamid]	–	–	–	überlegene Wirksamkeit gegenüber dem Stand der Technik	–
CC(=O)OC(C(N)=O)(C(N)=O)c1ccc(Cl)c(Cl)c1 [Beispiel 4, 3,4-Dichlorphenylacetoxymalonsäurediamid]	–	–	–	überlegene Wirksamkeit gegenüber dem Stand der Technik	–
CNS(=O)(=O)OC(C(N)=O)(C(N)=O)c1ccc(Cl)c(Cl)c1 [Beispiel 5, 3,4-Dichlorphenylmethylsulfamoyloxymalonsäurediamid]	überlegene Wirksamkeit gegenüber dem Stand der Technik	–	–	überlegene Wirksamkeit gegenüber dem Stand der Technik	–
CNC(=O)C(O)(C(N)=O)c1ccccc1 (centres unmarked) [Beispiel 27, Phenylhydroxymalonsäureamidmethylamid]	–	überlegene Wirkung gegenüber dem Stand der Technik	–	–	–
NC(=O)C(O)(C(=O)[O-])c1ccccc1.[Na+] (centres unmarked) [Beispiel 33, Mononatriumsalzes des Phenylhydroxymalonsäuremonoamids]	–	überlegene Wirkung gegenüber dem Stand der Technik	–	–	–
NC(=O)C(OSC(F)(Cl)Cl)(C(N)=O)c1ccc(Cl)c(Cl)c1 [Beispiel 36, 3,4-Dichlorphenyl-dichlorfluormethylsulfenyloxy-malonsäurediamid]	überlegene Wirksamkeit gegenüber dem Stand der Technik	–	–	überlegene Wirksamkeit gegenüber dem Stand der Technik	–
NC(=O)C(O)(C(=O)NC=O)c1ccc(Cl)c(Cl)c1 (centres unmarked) [Beispiel 37, 3,4-Dichlorphenylhydroxymalonsäureamidformylamid]	überlegene Wirksamkeit gegenüber dem Stand der Technik	–	–	überlegene Wirksamkeit gegenüber dem Stand der Technik	–
CC(=O)NC(=O)C(O)(C(N)=O)c1ccccc1 (centres unmarked) [Beispiel 38, Phenylhydroxymalonsäureamidacetylamid]	–	–	–	überlegene Wirksamkeit gegenüber dem Stand der Technik	–
CC(=O)NC(=O)C(O)(C(N)=O)c1ccc(Cl)c(Cl)c1 (centres unmarked) [Beispiel 38a, 3,4-Dichlorphenylhydroxymalonsäureamidacetylamid]	–	–	überlegene Wirkung gegenüber dem Stand der Technik	überlegene Wirksamkeit gegenüber dem Stand der Technik	–
CC(=O)NC(=O)C(OC(C)=O)(C(N)=O)c1ccc(Cl)c(Cl)c1 (centres unmarked) [Beispiel 39, 3,4-Dichlorphenylacetoxy-malonsäureamidacetylamid]	überlegene Wirksamkeit gegenüber dem Stand der Technik	–	überlegene Wirkung gegenüber dem Stand der Technik	überlegene Wirksamkeit gegenüber dem Stand der Technik	–
CC(=O)NC(=O)C(OC(C)=O)(C(=O)NC(C)=O)c1ccc(Cl)c(Cl)c1 [Beispiel 40, 3,4-Dichlorphenyl-acetoxy-malonsäurebisacetylamid]	überlegene Wirksamkeit gegenüber dem Stand der Technik	–	überlegene Wirkung gegenüber dem Stand der Technik	überlegene Wirksamkeit gegenüber dem Stand der Technik	–
CC(=O)NC(=O)C(OC(=O)c1ccccc1)(C(=O)NC(C)=O)c1ccc(Cl)c(Cl)c1 [Beispiel 41, 3,4-Dichlorphenylbenzoyloxymalonsäurebisacetylamid]	überlegene Wirksamkeit gegenüber dem Stand der Technik	–	–	überlegene Wirksamkeit gegenüber dem Stand der Technik	–
C[Si](C)(C)OC(C(N)=O)(C(N)=O)c1ccc(Cl)c(Cl)c1 [Beispiel 47, 2-(3,4-Dichlorphenyl)-2-trimethylsilyloxy-malonsäurediamid]	überlegene Wirksamkeit gegenüber dem Stand der Technik	überlegene Wirkung gegenüber dem Stand der Technik	überlegene Wirkung gegenüber dem Stand der Technik	überlegene Wirksamkeit gegenüber dem Stand der Technik	100
C[Si](C)(C)NC(=O)C(O[Si](C)(C)C)(C(=O)N[Si](C)(C)C)c1ccc(Cl)c(Cl)c1 [Beispiel 48]	überlegene Wirksamkeit gegenüber dem Stand der Technik	–	überlegene Wirkung gegenüber dem Stand der Technik	überlegene Wirksamkeit gegenüber dem Stand der Technik	–
CC(C)(C)NC(=O)C(O)(C(=O)NC(C)(C)C)c1ccccc1 [Beispiel 52, Phenylhydroxymalonsäure-bis-tert.-butylamid]	–	überlegene Wirkung gegenüber dem Stand der Technik	–	–	–
